# What was measured:
# human PPARα = target: T1, human PPARα (Homo sapiens, UniProt Q07869); assay: Luciferase assay using human PPARα (Gal4-PPARα LBD chimeric receptor, CV-1 cells); type: cell-based; details: PPARα agonistic activity, compound 10 μM, luciferase activity of carbacyclin (10 μM) defined as 1.0, 42 hours
# T1 construct: expressed in transfected cells; host or cells: CV-1 cells
# T1 sequence (Q07869 167-468): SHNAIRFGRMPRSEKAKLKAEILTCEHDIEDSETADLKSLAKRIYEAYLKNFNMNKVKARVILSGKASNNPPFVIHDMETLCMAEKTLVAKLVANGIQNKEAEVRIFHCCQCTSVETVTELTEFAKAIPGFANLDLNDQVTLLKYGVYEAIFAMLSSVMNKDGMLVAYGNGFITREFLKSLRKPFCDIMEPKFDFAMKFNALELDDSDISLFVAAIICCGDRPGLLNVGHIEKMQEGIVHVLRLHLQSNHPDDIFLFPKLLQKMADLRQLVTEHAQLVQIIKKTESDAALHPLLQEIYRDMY
# human PPARγ = target: T2, human PPARγ (Homo sapiens, UniProt P37231); assay: Luciferase assay using human PPARγ (Gal4-PPARγ LBD chimeric receptor, CV-1 cells); type: cell-based; details: PPARγ agonistic activity, compound 10 μM, luciferase activity of troglitazone (10 μM) defined as 1.0, 42 hours
# T2 construct: expressed in transfected cells; host or cells: CV-1 cells
# T2 sequence (P37231 204-505): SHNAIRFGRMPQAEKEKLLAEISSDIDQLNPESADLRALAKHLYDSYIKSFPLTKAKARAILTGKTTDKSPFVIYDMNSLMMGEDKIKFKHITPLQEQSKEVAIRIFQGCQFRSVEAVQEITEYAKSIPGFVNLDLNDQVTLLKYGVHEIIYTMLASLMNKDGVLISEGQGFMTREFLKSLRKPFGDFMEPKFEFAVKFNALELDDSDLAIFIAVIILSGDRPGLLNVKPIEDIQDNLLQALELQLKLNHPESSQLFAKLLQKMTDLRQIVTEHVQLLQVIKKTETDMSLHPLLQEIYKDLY
# KKAy/Ta mice = assay: Hypoglycemic and hypolipidemic effects in KKAy/Ta mice; type: in vivo; details: male KKAy/Ta mice, food mixture containing 0.03% (w/w) compound for two days, 5 mice per group; for TG level on Day 3: control 523 ± 144; for glycemic level on Day 3: control 638 ± 63
# Excerpt: Hypoglycemic and Hypolipidemic Effects
# Male, 7-weeks old KKAy/Ta mice weighed from 35 to 40 g (five mice per group) were pre-breaded for approximately one week and acclimatized for three days on milled diet. On the first day of the experiment (Day 0), mice were divided into some groups according to weight, plasma glucose and triglyceride (TG) levels to minimize the differences among groups. From the next day for two days they were given compounds by food mixture containing 0.03% (w/w) of the compound of the present invention or by milled diet only. At 13:00 of the third day, blood samples were collected to measure glucose and TG levels. Additionally, there was no significant difference in the food intake between control group (milled diet only) and compounds-treated group (milled diet containing 0.03% compounds).
# SD rats = assay: Hypocholesterolemic and hypolipidemic effects in SD rats given hypercholesterolemic food; type: in vivo; details: male SD rats, oral administration in 0.5% CMC, then hypercholesterolemic food, blood at 9:00 of the next day, 5 rats per group; for TC level: control 154 ± 8; for TG level: control 158 ± 19; for NEFA levle: control 537 ± 69
# Excerpt: Hypocholesterolemic and Hypolipidemic Effects
# Male, six-weeks old SD rats (five rats per group) were left to take milled diet and water ad libitum and were acclimatized for 1 week.
# At 9:00 on the first day of the experiment (Day 0), blood sampling was done from tail vein. The rats were divided into some groups according to body weight, triglyceride (TG), non-esterified fatty acid (NEFA) and total cholesterol (TC) levels to minimize differences of the parameters among the groups. At 17:00 of the day, the compound of the present invention dissolved in 0.5% aqueous solution of carboxymethylcellulose (CMC) was orally administered, and thereafter, with hypercholesterolemic food (5.5% peanut oil, 1.5% cholesterol and 0.5% cholic acid were mixed with milled CRF-1 diet, Charles River Inc.) was given to the rats.
# At 9:00 of the next day, blood sampling was done from tail vein. The lipid levels in blood (TG, NEFA and TC levels) after administration of the compounds of the present invention were measured. There was no significant difference of the food intake between the control group (provided only 0.5% CMC) and the group treated with the compounds of the present invention.
compound,measurement,setting,value
"Cc1oc(-c2ccccc2)nc1CCOCC#CCSCC(=O)O [Example 5 (2), 2-(4-(2-(5-methyl-2-phenyloxazol-4-yl)ethoxy)-2-butynylthio)acetic acid]",Relative Activity to a positive control compound (carbacyclin = 1),human PPARα,2.9
same,Relative Activity to a positive control compound (troglitazone = 1),human PPARγ,2.6
"Cc1oc(-c2ccccc2)nc1CCOCCCCSCC(=O)O [Example 5 (8), 2-(4-(2-(5-methyl-2-phenyloxazol-4-yl)ethoxy)butylthio)acetic acid]",Relative Activity to a positive control compound (carbacyclin = 1),human PPARα,2.2
same,Relative Activity to a positive control compound (troglitazone = 1),human PPARγ,2.3
"Cc1ccc(-c2nc(CCOCC#CCSCC(=O)O)c(C)o2)cc1 [Example 5 (10), 2-(4-(2-(5-methyl-2-(4-methylphenyl)oxazol-4-yl)ethoxy)-2-butynylthio)acetic acid]",TG level on Day 3,KKAy/Ta mice,111 ± 38 mg/dL
same,glycemic level on Day 3,KKAy/Ta mice,339 ± 74 mg/dL
same,TC level,SD rats,88 ± 6 mg/dL
same,TG level,SD rats,95 ± 17 mg/dL
same,NEFA levle,SD rats,334 ± 55 μEq/l
same,Relative Activity to a positive control compound (carbacyclin = 1),human PPARα,1.5
same,Relative Activity to a positive control compound (troglitazone = 1),human PPARγ,2.7
"Cc1oc(-c2ccc3c(c2)OCO3)nc1CCOCC#CCSCC(=O)O [Example 5 (11), 2-(4-(2-(5-methyl-2-(1,3-dioxaindan-5-yl)oxazol-4-yl)ethoxy)-2-butynylthio)acetic acid]",TG level on Day 3,KKAy/Ta mice,140 ± 75 mg/dL
same,glycemic level on Day 3,KKAy/Ta mice,306 ± 72 mg/dL
same,TC level,SD rats,91 ± 6 mg/dL
same,TG level,SD rats,90 ± 14 mg/dL
same,NEFA levle,SD rats,227 ± 17 μEq/l
same,Relative Activity to a positive control compound (carbacyclin = 1),human PPARα,1.7
same,Relative Activity to a positive control compound (troglitazone = 1),human PPARγ,2.3

# — patent US7241784B2, “Carboxylic acid derivative and a pharmaceutical composition containing the derivative as active ingredient” (Ono Pharmaceutical Co., Ltd., priority 1998, dated 2007)
